# Tested on: PYK-2
# Experiment: Tyrosine phosphorylation of PYK-2 in NIH3T3 cell lines that overexpress PYK-2
# Format: cell-based, mouse
# Conditions: NIH3T3 cells overexpressing PYK-2 / PYK-2-HA; TPA 6 μM, 15 min at 37° C.
# Description: Stable cell lines of NIH3T3 that overexpress PYK2 were established by contransfection of PYK2 subcloned into pLSV together with pSV2neo utilizing lipofectamine reagent (GIBCO BRL). Following transfection the cells were grown in Dulbecco's modified Eagle's medium containing 10% fetal bovine serum and 1 mg/ml G418. Transient transfections into 293 cells were performed by using the calcium phosphate technique (*).
# The PYK-2 cDNA cloned in PLSV was cotransfected with pSV2neo into PC12 cells and NIH3T3 in order to establish stable cell lines. G418 resistant colonies were screened by immunoprecipitating and immunoblotting.
# NIH3T3 cell lines were established that overexpress the PYK-2 and the PYK-2-HA protein. […] The level of phosphorylation is not so high.
structure (smiles),measurement,value
"CCCCCCCCCCCCCC(=O)O[C@@H]1[C@@H](C)[C@@]2(O)[C@@H](C=C(CO)C[C@]3(O)C(=O)C(C)=C[C@@H]23)[C@@H]2C(C)(C)[C@]12OC(C)=O [PMA, phorbol 12-myristate 13-acetate]",tyrosine phosphorylation of PYK-2 in response to the agent,stronger effect

# Reference: patent US20040005648A1, “PYK2 related products and methods” (Sugen, Inc., priority 1994, published 2004)
